Measured values taken from patent publication US9399623B2, “Quinoline derivatives and their use in neurodegenerative diseases” (Merck Patent GmbH, priority 2014, dated 2016).

Experiments:
P2X7 [1] = target: T1, P2X7 (Homo sapiens, UniProt Q99572); experiment: Pore permeation assay (YO PRO dye uptake, BzATP-induced); type: cell-based; design: expressed in transfected cells; host or cells: HEK293; details: HEK293 transfected with human P2X7 receptor; YO PRO dye 1 uM, BzATP 10 uM; read-out: hP2X7 IC50
T1 sequence (Q99572 1-595): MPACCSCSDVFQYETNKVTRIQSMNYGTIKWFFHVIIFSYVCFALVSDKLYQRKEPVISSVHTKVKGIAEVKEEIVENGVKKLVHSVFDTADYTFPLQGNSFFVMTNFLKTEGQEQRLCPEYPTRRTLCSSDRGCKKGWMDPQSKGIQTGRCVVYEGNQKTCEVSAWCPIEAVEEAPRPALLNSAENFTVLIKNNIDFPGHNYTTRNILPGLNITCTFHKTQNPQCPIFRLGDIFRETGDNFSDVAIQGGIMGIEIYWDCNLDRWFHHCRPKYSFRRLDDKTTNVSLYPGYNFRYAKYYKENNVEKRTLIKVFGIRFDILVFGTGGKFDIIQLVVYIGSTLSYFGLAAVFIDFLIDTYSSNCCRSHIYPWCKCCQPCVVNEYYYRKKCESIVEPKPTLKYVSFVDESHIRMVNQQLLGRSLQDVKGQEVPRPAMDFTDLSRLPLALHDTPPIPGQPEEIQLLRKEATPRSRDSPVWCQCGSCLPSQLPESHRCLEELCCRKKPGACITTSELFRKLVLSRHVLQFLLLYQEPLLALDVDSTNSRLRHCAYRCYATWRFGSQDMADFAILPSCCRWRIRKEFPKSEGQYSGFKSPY
Procedure, shortened: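 HEK293 cells overexpressing human P2X7, plated overnight at 37 C, preincubated 20 min at room temperature with compound (10-point series from 2.5 uM) in HEPES-buffered saline pH 7.4 with 0.1 mM CaCl2. Then 10 uM BzATP plus 1 uM YO PRO added; dye uptake read by fluorescence after 30 min at room temperature.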

P2X7 [2] = target: T1, P2X7; experiment: IL-1β release assay in THP-1 cells (sandwich ELISA); type: cell-based; design: release of mature IL-1β in the culture medium of THP-1 cells; endogenous in cells; host or cells: THP-1 cells (PMA-differentiated, LPS-primed); details: PMA, LPS primed, stimulated with 0.8 mM BzATP, mature IL-1β release, read-out: hTHP-1/IL-ib IC50
Procedure, shortened: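 THP-1 cells differentiated with 0.5 μM PMA and primed 4 h with 10 ng/ml LPS at 37° C, then preincubated 20 min with compound. Stimulated with 0.8 mM BzATP for 30 min; mature IL-1β released into the supernatant quantified by sandwich ELISA.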

IC50 (P2X7 [1]) [nM]	IC50 (P2X7 [2]) [nM]	SMILES
10 to 100	10 to 100	O=C(NCC1CCC(F)(F)CC1)c1c(Cl)ccc2nc(NCCO)ccc12 [Compound 66, 6-Chloro-2-(2-hydroxy-ethylamino)-quinoline-5-carboxylic acid (4,4-difluoro-cyclohexyl methyl)-amide]
10 to 100	101 to 500	CC(=O)NC1CCN(c2ccc3c(C(=O)NCC4CCC(F)(F)CC4)c(Cl)ccc3n2)C1 (stereo not shown) [Compound 67, 2-(3-Acetylamino-pyrrolidin-1-yl)-6-chloro-quinoline-5-carboxylic acid (4,4-difluoro-cyclohexylmethyl)-amide]
10 to 100	500 to 999	COCCNc1ccc2c(C(=O)NCC3CCC(F)(F)CC3)c(Cl)ccc2n1 [Compound 68, 6-Chloro-2-(2-methoxy-ethylamino)-quinoline-5-carboxylic acid (4,4-difluoro-cyclohexyl methyl)-amide]
10 to 100	101 to 500	COCCCOc1ccc2c(C(=O)NCC3CCC(F)(F)CC3)c(Cl)ccc2n1 [Compound 69, 6-Chloro-2-(3-methoxy-propoxy)-quinoline-5-carboxylic acid (4,4-difluoro-cyclohexylmethyl)-amide]
10 to 100	101 to 500	COCCOc1ccc2c(C(=O)NCC3CCC(F)(F)CC3)c(Cl)ccc2n1 [Compound 70, 6-Chloro-2-(2-methoxy-ethoxy)-quinoline-5-carboxylic acid (4,4-difluoro-cyclohexyl methyl)-amide]
10 to 100	101 to 500	CN(CCO)c1ccc2c(C(=O)NCC3CCC(F)(F)CC3)c(Cl)ccc2n1 [Compound 73]
101 to 500	101 to 500	O=C(NCC1CCC(F)(F)CC1)c1c(Cl)ccc2nc(N3CC(F)(F)C3)ccc12 [Compound 74, 6-Chloro-2-(3,3-difluoro-azetidin-1-yl)-quinoline-5-carboxylic acid (4,4-difluoro-cyclohexylmethyl)-amide]
101 to 500	101 to 500	O=C(NCC1(O)CCCC(F)(F)C1)c1c(Cl)ccc2nc(N3CC(F)(F)C3)ccc12 (stereo not shown) [Compound 75, 6-Chloro-2-(3,3-difluoroazetidin-1-yl)-quinoline-5-carboxylic acid (3,3-difluoro-1-hydroxycyclohexylmethyl)-amide]
101 to 500	10 to 100	O=C(NCC1(O)CCC(F)(F)CC1)c1c(Cl)ccc2ncccc12 [Compound 76]
101 to 500	10 to 100	O=C(NCC1CCC(F)(F)CC1)c1c(Cl)ccc2ncccc12 [Compound 78]
101 to 500	> 1000	O=C(NC[C@]1(O)CCCC(F)(F)C1)c1c(Cl)ccc2nc(N3CCC(F)(F)C3)ccc12 [Compound 80, 6-Chloro-2-(3,3-difluoropyrrolidin-1-yl)-quinoline-5-carboxylic acid ((S)-3,3-difluoro-1-hydroxycyclohexylmethyl)-amide]
